# Patent US20240331158A1, “CELL PAINTING AND ANALYSIS IN 3D CELLULAR MODELS” (priority 2023, published 2024)
# Where a name gives a salt, the structure may show the parent alone. Read-outs that look alike come from different tables or passages of the source.
# How the values were obtained:
# [1] = test system: TU-BcX-4IC tumoroids; experiment: Label-free transmitted light imaging of tumoroids, deep learning segmentation (IN Carta); assay type: cell-based, human; settings: 10 uM, 5 days, no staining, 10× objective
# Procedure: Images were analyzed using SYNAP module of InCartasoftware (Molecular Devices). Analysis mask shown in yellow.
# A deep learning-based segmentation (IN Carta Image Analysis Software) approach was used to find all tumoroid objects in transmitted light, either intact or affected. Following segmentation and data extraction, a machine learning tool was utilized to classify all tumoroids into intact, intermediate or severely affected categories. Affected tumoroids were flagged by increase in the object areas (criteria were set as AVERAGE 2*STDEV from the DMSO-treated), allowing detection of effective compounds (FIG. 7, Table 6). An advantage of this method is that compound effects could be interrogated in a label-free manner during multiple time points. However, the analysis allowed some ambiguity in determining accurate areas of the objects, especially when the phenotypic changes were weak or moderate (FIG. 7). The endpoint fluorescent imaging and analysis enabled more robust measurements and compound selection (Tables 5 and 6).
# Transmitted light (TL) and fluorescent (FL) images were acquired on the ImageXpress Confocal HT.ai High-Content Imaging System (Molecular Devices) and images analyzed using MetaXpress High-Content Image Analysis Software. Tumoroid images were acquired in TL with approximately 60 μm offset. Zstack images were acquired with the 10× objectives using confocal mode. Best focus projection images were used for TL analysis, and maximum projection images were used for FL analysis. MetaXpress Software or IN Carta Image Analysis Software was used for analysis.
# [2] = test system: TU-BcX-4IC tumoroids; experiment: Cell Painting assay adapted for 3D tumoroids, phenotypic distance score and cluster analysis; settings: 10 μM, phenotypic distance relative to DMSO controls
# Procedure: For phenotypic profiling, the tumoroids were treated with a single 10 μM concentration of compound, using the methods described above. Notable changes in the staining protocol included increased times for dye incubation, fixation, and permeabilization. […] Images were acquired with Z-stacks using 20× magnification, and the analysis was carried out on projection (maximum) images.
# Unlike the previous analysis that included cell count or live-dead evaluation, multiple read-outs may be collected from the whole spheroid to form their phenotypic profile. […] Instead, the spheroid images may also acquired in transmitted light (bright field), and these images may be used to identify the spheroid structures using a deep learning-based image segmentation approach which may improve the analysis. Features extracted from each spheroid may include object morphologies, intensities, and texture measurements for, e.g., the six cell stains and bright field images.
# To determine hits from the assay, a phenotypic distance score may be calculated based on the PCA (principal component analysis) components.
# This score is a measure of the phenotypic effect of the compounds on the tumoroids relative to the controls. All hits may then be clustered based on their phenotypic profiles using the normalized principal component scores.
# To image the organoids labeled with the cell painting dyes, the ImageXpress Confocal HT.ai system, equipped with a laser light source, was used for image acquisition. The confocal mode (pinhole size 60 μm) was used to image organoids with a 20× Plan Apo Lambda, NA 0.75 objective, with z-stacking enabled (5p m step size). The maximum projection image was selected in the acquisition setup.
# Images were analyzed using MetaXpress Software (Molecular Devices). […] For the Cell Painting analysis, image analysis was done in the IN Carta image analysis software. To segment the organoids, a deep learning-based model was created based on the TL channel to segment individual organoids. Following segmentation, measurements that include intensity, shape, area, and texture were extracted from all 6 fluorescent channels. In total, 210 analytical features were obtained from each organoid.
# The plate was first incubated with MitoTracker DeepRed (500 nM) for 2 hours. The samples were fixed with 4% paraformaldehyde (PFA) in HBSS for 60 minutes. All wash steps were carried out by exchanging half the volume in each well with HBSS to minimize displacement of the organoids from the center of the well.
# Measurements from IN Carta were exported as a CSV file and uploaded into StratoMineR (Core Life Analytica), a web-based data analytics platform for hit picking and phenotypic clustering.
# [3] = test system: TU-BcX-4IC tumoroids; experiment: Library screening of NCI approved anti-cancer drugs: tumoroid integrity/disintegration by nuclear count in projection images (viability/spheroid disintegration assay); settings: for Viability HIT?: also hit in viability/spheroid disintegration assay, 10 μM; for minimal effective concentration: Homo sapiens, TU-BcX-4IC, 120 h, read-out: Effective concentration, 3D tumoroids, 5 days treatment, tumoroid integrity by nuclear count, tested at 10 nM to 100 uM
# Procedure: In addition, positive and negative controls were included in the test plates.
# During incubation with compounds, tumoroids were monitored daily using TL imaging. Image analysis allowed characterization of tumoroid size, diameter, compactness, and integrity, as well as optical density (FIG. 2B, FIG. 7). Images of tumoroids were taken prior to compound treatment, and during day 3 and day 5 of compound treatment. For the end point assay, tumoroids were stained with viability and nuclear dyes on day 5 of compound treatment. Cells were stained with a combination of Hoechst, calcein AM, and Ethidium Homodimer III (EthD-III) and analyzed using high content imaging for complex phenotypic analysis; a subset of plates was set aside for additional assays including Cell Painting.
# Images of organoids were taken with a 10× objective using Z-stack with a step size of 8 mm. Nuclei, live cells, and dead cells of stained cells were detected using DAPI, FITC, and TexasRed channels respectively. Maximum projection images were created from Z-stacks and analyzed as described in Methods. Multiple read-outs were generated characterizing spheroid area, diameter, intensities, and cell viability. In addition, cells inside each spheroid were counted using a nuclear stain. […] Suspended cells were plated into U-shape 384 well plates using a Biomek i7 automated liquid handler, incubated for 48 hours, and then treated with compounds, stained, and imaged. The protocols for compound additions, media, and staining included gentle media dispensing processes. Consecutively, tumoroids were cultured and monitored by automated imaging. Additionally, use of a collaborative robot enabled moving plates from the incubator to the imaging system, where transmitted light imaging or fluorescent imaging protocols were initiated.
# For screening the compound library, maximum projection images may be employed. Spheroid disintegration is visible as an increase of spheroid size, in contrast to nicely shaped, round images of intact spheroids. Tumoroid disintegration can be described by several measurements: for example, increase in organoid area/diameter. Most accurate measurements may be done by counting cells or nuclei inside organoids using maximum projection images. […] Disintegrated tumoroids are made up of cells which are not held together in a tight aggregate but instead are loosely piled up in the well bottom resulting in 1) an increased projected area and 2) an increase in nuclear count in the projection images.
# Simple nuclei count analysis in projection images was used as a reliable surrogate marker for organoid integrity/dis-integration.
# [4] = test system: TU-BcX-4IC tumoroids; experiment: Secondary follow-up 3D assay, 7-point concentration curves, tumoroid disintegration measurement; assay type: cell-based, human; settings: Homo sapiens, TU-BcX-4IC, 120 h
# Procedure: 10 compounds, including panobinostat, carfilzomib, and bortezomib were tested across 7 concentrations in the 1-10000 nM range. Spheroids were treated for 5 days with these compounds, then stained as described above (FIG. 4). […] EC50 values (Table 2) were determined using tumoroid disintegration measurement (nuclear count in projection images).
# Automated staining of spheroids was performed for one hour. After staining, dye solution was replaced with 1×PBS.
# [5] = test system: TU-BcX-4IC 2D culture; experiment: Imaging read-out, 2D culture; settings: Homo sapiens, 120 h, read-out: EC50, Imaging 2D
# Procedure: (§1) Cell metabolism may be measured by ATP level as another readout for effects of anti-cancer drugs that is related to cytotoxicity. In the present examples, a subset of 12 compounds were used for evaluation of compound effects, using the CellTiter-Glo 3D assay (Promega), which detects ATP levels. Compounds may be tested using 7 point 5× dilutions starting from 100 uM. In the present examples, compound effects on 2D culture and 3D cultures were compared, using imaging and CellTiter-Glo 3D methods. Cultures were set up in parallel, using same cell number (2000). Cultures were allowed to grow for 48 hours, then treated with compounds for 5 days.
# (§2) Images were analyzed using MetaXpress Software (Molecular Devices). Count Nuclei or Cell Scoring application modules were used for nuclear count live/dead assessment, or evaluation of cell number positive for specific markers. Output measurements included spheroid width, spheroid area, average intensity for calcein AM or EthD-III, counts of all nuclei, and evaluation of average nuclear size and average intensities. In addition, calcein AM-positive cells were counted, and their area and intensity values were recorded. In addition to cell count, areas and intensities could be determined for live (EthD-III negative) and dead (EthD-III positive) cells.
# [6] = test system: TU-BcX-4IC 3D cultures; experiment: CellTiter-Glo 3D ATP assay, 3D culture; settings: Homo sapiens, TU-BcX-4IC, 120 h, read-out: EC50, ATP 3D
# Procedure: (§3) Cell metabolism may be measured by ATP level as another readout for effects of anti-cancer drugs that is related to cytotoxicity. […] Compounds may be tested using 7 point 5× dilutions starting from 100 uM. In the present examples, compound effects on 2D culture and 3D cultures were compared, using imaging and CellTiter-Glo 3D methods. Cultures were set up in parallel, using same cell number (2000). Cultures were allowed to grow for 48 hours, then treated with compounds for 5 days.
# [7] = test system: TU-BcX-4IC 2D culture; experiment: CellTiter-Glo 3D ATP assay, 2D culture; settings: Homo sapiens, TU-BcX-4IC, 120 h, read-out: EC50, ATP 2D
# Procedure: as §3
# [8] = test system: TU-BcX-4IC 3D cultures; experiment: Imaging read-out, 3D culture; settings: Homo sapiens, 120 h, read-out: EC50, Imaging 3D
# Procedure: as §1, §2
# [9] = 3D assay, 7-point concentration curves, 5 days, nuclear count in projection images, read-out: EC50
EC50 [5] [nM],EC50 [8] [nM],"EC50 [4, 9] [nM]",Structure (SMILES),Tumoroids effected by compound in transmitted light images [1],EC50 [6] [nM],EC50 [7] [nM],further results
–,–,–,COc1cc(OC)cc(N(CCNC(C)C)c2ccc3ncc(-c4cnn(C)c4)nc3c2)c1 [erdafitinib],effected by compounds,–,–,–
–,–,–,O=C1c2c(O)ccc(O)c2C(=O)c2c(NCCNCCO)ccc(NCCNCCO)c21 [Mitoxantrone],effected by compounds,–,–,Distance Score [2]: 6.688; Viability HIT? [3]: yes
–,–,–,COc1cccc2c1C(=O)c1c(O)c3c(c(O)c1C2=O)C[C@@](O)(C(=O)CO)C[C@@H]3O[C@H]1C[C@H](N)[C@H](O)[C@H](C)O1 [doxorubicin],effected by compounds,–,–,"Nuclear count in projection images (qualitative) ([3]; 3D tumoroids, 5 days): decrease in counted nuclei"
–,–,28,COc1c(OCCCN2CCOCC2)ccc2c1N=C(NC(=O)c1cnc(N)nc1)N1CCN=C21 [Copanlisib tris-HCl],effected by compounds,–,–,Distance Score [2]: 5.147; minimal effective concentration [3]: 0.1 µM; Viability HIT? [3]: yes
6270,8820,70,CC(=O)Nc1cccc(-n2c(=O)n(C3CC3)c(=O)c3c(Nc4ccc(I)cc4F)n(C)c(=O)c(C)c32)c1 [Trametinib],–,2620,7330,–
10,70,17,CC(C)C[C@H](NC(=O)[C@H](Cc1ccccc1)NC(=O)c1cnccn1)B(O)O [Bortezomib],–,15,10,"minimal effective concentration [3]: 0.01 µM; Efficacy at low concentrations ([3]; library screen, tumoroid integrity by nuclear count): efficacy at low concentrations"
6,141,54,Cc1[nH]c2ccccc2c1CCNCc1ccc(/C=C/C(=O)NO)cc1 [Panobinostat],–,84,46,–

Structure (SMILES),EC50 [5] [nM],EC50 [8] [nM],"EC50 [4, 9] [nM]",Tumoroids effected by compound in transmitted light images [1],EC50 [6] [nM],EC50 [7] [nM],further results
C/C=C1\NC(=O)[C@H]2CSSCC/C=C/[C@H](CC(=O)N[C@H](C(C)C)C(=O)N2)OC(=O)[C@H](C(C)C)NC1=O [Romidepsin],~10,< 10,–,–,~10,~10,EC50 [4]: 36 nM
